Source: the supplement of paper PMC6045584
± gives the standard deviation of the averaged measurements.

compound: CCCS(=O)(=O)Nc1ccc(F)c(C(=O)c2c[nH]c3ncc(Cl)cc23)c1F [PLX-4720]; assay: surviving fraction relative to DMSO-only wells; higher = less growth inhibition; settings: 0.5 nM; exposure time: 5 days
Method in brief: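 Lines were retained only if, across three screens, replicate Pearson r was >0.7 and median Z' was >0.3. Viability was measured as CellTiter-Glo luminescence and reported as surviving fraction relative to the median of DMSO-only wells. Readings followed 10 minutes at room temperature, after log-phase tumour cells seeded at 250–500 per well in 384-well plates had been exposed, from 24 hours after seeding, continuously for five days to inhibitors at 0.5, 1, 5, 10, 50, 100, 500 and 1000 nM.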

Test System	surviving fraction
MDAMB361 BREAST	0.888 ± 0.076
MDAMB436 BREAST	0.754 ± 0.019
MDAMB453 BREAST	0.963 ± 0.054
MDAMB468 BREAST	0.827 ± 0.026
MFM223 BREAST	0.709 ± 0.032
MG63 BONE	0.875 ± 0.01
MHM BONE	0.9713 ± 0.0025
NCIH441 LUNG	0.899 ± 0.056
NOS1 BONE	0.85 ± 0.15
NY BONE	0.905 ± 0.038
OS25HAL BONE	0.902 ± 0.013
OSHN BONE	0.859 ± 0.011
PCI30 HEADNECK	1.03 ± 0.057
RDES SOFT TISSUE	0.795 ± 0.13
S68 BREAST	0.773 ± 0.17
SAOS2 BONE	0.824 ± 0.019
SCC36 HEADNECK	0.761 ± 0.06
SCC47 HEADNECK	0.871 ± 0.025
SCC90 HEADNECK	0.874 ± 0.13

Test System	surviving fraction
SG27 HEADNECK	0.659 ± 0.094
SG28 HEADNECK	0.279 ± 0.033
SG31 HEADNECK	0.492 ± 0.037
SG32 HEADNECK	0.341 ± 0.11
SG43 HEADNECK	1.26 ± 0.34
SIHA CERVIX	0.908 ± 0.016
SJSA1 BONE	0.89 ± 0.025
SKBR3 BREAST	0.838 ± 0.027
SNU475 LIVER	0.358 ± 0.028
SUM44 BREAST	0.9 ± 0.025
SUM149.B1*.S BREAST	0.392 ± 0.028
SUM159 BREAST	1.04 ± 0.28
SYO1 SYNOVIAL	0.336 ± 0.15
T47D BREAST	0.81 ± 0.036
U2OS BONE	0.914 ± 0.029
VCAP PROSTATE	0.915 ± 0.03
VP229 BREAST	0.861 ± 0.03
YAMATO SYNOVIAL	0.15 ± 0.019
ZR751 BREAST	0.774 ± 0.021

same assay, conditions: 1 nM; exposure time: 5 days

Test System	surviving fraction
MDAMB361 BREAST	0.865 ± 0.035
MDAMB436 BREAST	0.831 ± 0.092
MDAMB453 BREAST	1.01 ± 0.048
MDAMB468 BREAST	0.828 ± 0.0072
MFM223 BREAST	0.758 ± 0.066
MG63 BONE	0.884 ± 0.025
MHM BONE	0.96 ± 0.016
NCIH441 LUNG	0.906 ± 0.072
NOS1 BONE	1 ± 0.11
NY BONE	0.909 ± 0.026
OS25HAL BONE	0.925 ± 0.016
OSHN BONE	0.882 ± 0.017
PCI30 HEADNECK	0.987 ± 0.0079
RDES SOFT TISSUE	0.683 ± 0.12
S68 BREAST	0.685 ± 0.22
SAOS2 BONE	0.866 ± 0.013
SCC36 HEADNECK	0.694 ± 0.059
SCC47 HEADNECK	0.853 ± 0.017
SCC90 HEADNECK	0.819 ± 0.034

Test System	surviving fraction
SG27 HEADNECK	0.877 ± 0.1
SG28 HEADNECK	0.796 ± 0.12
SG31 HEADNECK	0.775 ± 0.056
SG32 HEADNECK	0.617 ± 0.029
SG43 HEADNECK	1.19 ± 0.013
SIHA CERVIX	0.877 ± 0.034
SJSA1 BONE	0.914 ± 0.026
SKBR3 BREAST	0.81 ± 0.098
SNU475 LIVER	0.806 ± 0.029
SUM44 BREAST	0.868 ± 0.058
SUM149.B1*.S BREAST	0.793 ± 0.046
SUM159 BREAST	1.08 ± 0.28
SYO1 SYNOVIAL	0.772 ± 0.089
T47D BREAST	0.921 ± 0.0064
U2OS BONE	0.9627 ± 0.0058
VCAP PROSTATE	0.942 ± 0.048
VP229 BREAST	0.838 ± 0.056
YAMATO SYNOVIAL	0.825 ± 0.054
ZR751 BREAST	0.834 ± 0.051

same assay, conditions: 5 nM; exposure time: 5 days

Test System	surviving fraction
MDAMB361 BREAST	0.8033 ± 0.0065
MDAMB436 BREAST	0.837 ± 0.052
MDAMB453 BREAST	1.04 ± 0.071
MDAMB468 BREAST	0.895 ± 0.028
MFM223 BREAST	0.691 ± 0.098
MG63 BONE	0.926 ± 0.016
MHM BONE	1 ± 0.023
NCIH441 LUNG	0.919 ± 0.1
NOS1 BONE	0.961 ± 0.069
NY BONE	0.933 ± 0.016
OS25HAL BONE	0.934 ± 0.0061
OSHN BONE	0.89 ± 0.025
PCI30 HEADNECK	1.01 ± 0.032
RDES SOFT TISSUE	0.7 ± 0.079
S68 BREAST	0.775 ± 0.18
SAOS2 BONE	0.891 ± 0.0052
SCC36 HEADNECK	0.803 ± 0.036
SCC47 HEADNECK	0.953 ± 0.041
SCC90 HEADNECK	0.955 ± 0.011

Test System	surviving fraction
SG27 HEADNECK	0.962 ± 0.077
SG28 HEADNECK	0.718 ± 0.057
SG31 HEADNECK	0.765 ± 0.053
SG32 HEADNECK	0.494 ± 0.06
SG43 HEADNECK	1.09 ± 0.053
SIHA CERVIX	0.909 ± 0.041
SJSA1 BONE	0.904 ± 0.028
SKBR3 BREAST	0.819 ± 0.14
SNU475 LIVER	0.674 ± 0.01
SUM44 BREAST	0.932 ± 0.011
SUM149.B1*.S BREAST	0.787 ± 0.036
SUM159 BREAST	1.04 ± 0.21
SYO1 SYNOVIAL	0.658 ± 0.089
T47D BREAST	0.919 ± 0.043
U2OS BONE	0.949 ± 0.007
VCAP PROSTATE	0.934 ± 0.031
VP229 BREAST	0.861 ± 0.055
YAMATO SYNOVIAL	0.619 ± 0.023
ZR751 BREAST	0.768 ± 0.062

same assay, conditions: 10 nM; exposure time: 5 days

Test System	surviving fraction
MDAMB361 BREAST	0.792 ± 0.035
MDAMB436 BREAST	0.821 ± 0.024
MDAMB453 BREAST	1.01 ± 0.044
MDAMB468 BREAST	0.928 ± 0.024
MFM223 BREAST	0.754 ± 0.057
MG63 BONE	0.937 ± 0.016
MHM BONE	1.02 ± 0.021
NCIH441 LUNG	0.965 ± 0.016
NOS1 BONE	0.994 ± 0.2
NY BONE	0.959 ± 0.02
OS25HAL BONE	0.942 ± 0.02
OSHN BONE	0.904 ± 0.018
PCI30 HEADNECK	1.06 ± 0.011
RDES SOFT TISSUE	0.747 ± 0.058
S68 BREAST	0.778 ± 0.19
SAOS2 BONE	0.831 ± 0.049
SCC36 HEADNECK	0.76 ± 0.028
SCC47 HEADNECK	0.884 ± 0.016
SCC90 HEADNECK	0.965 ± 0.17
SG27 HEADNECK	0.965 ± 0.12

Test System	surviving fraction
SG28 HEADNECK	0.849 ± 0.082
SG31 HEADNECK	0.96 ± 0.18
SG32 HEADNECK	0.742 ± 0.094
SG43 HEADNECK	1 ± 0.1
SIHA CERVIX	0.995 ± 0.034
SJSA1 BONE	0.948 ± 0.025
SKBR3 BREAST	0.813 ± 0.15
SNU475 LIVER	0.808 ± 0.02
SUM44 BREAST	0.969 ± 0.022
SUM149 BREAST	0.827 ± 0.063
SUM149.B1*.S BREAST	0.8912 ± 0.0055
SUM159 BREAST	1.08 ± 0.23
SYO1 SYNOVIAL	0.809 ± 0.043
T47D BREAST	0.953 ± 0.025
U2OS BONE	0.978 ± 0.035
VCAP PROSTATE	0.986 ± 0.074
VP229 BREAST	0.887 ± 0.019
YAMATO SYNOVIAL	0.919 ± 0.055
ZR751 BREAST	0.811 ± 0.078

same assay, conditions: 50 nM; exposure time: 5 days

Test System	surviving fraction
MDAMB361 BREAST	0.991 ± 0.074
MDAMB436 BREAST	0.9 ± 0.096
